Test system: 565726-208-R1-J5-PDC complex spheroids, growth inhibition
Assay: Anticancer human tumor 565726-208-R1-J5-PDC patient-derived pancreatic adenocarcinoma cell line growth inhibition [RAS]
Conditions: for IC50: curve of first compound; for viability, T/C: stronger effect = lower value
Description: RAS pathway inhibitors in Combinations in Complex Spheroids
A high-throughput screen of multi-cell type tumor spheroids was designed to identify active combinations of RAS pathway inhibitors and targeted small molecules. Complex spheroids include a stromal component modeled by human endothelial cells (HUVEC) and fibroblasts modeled by human mesenchymal stem cells (MSCs). The concentration ranges selected for each drug and investigational agent were based upon clinically achievable concentrations if the clinical Cmax of the agent was known.
Compounds. The drugs and investigational agents: abemaciclib (NSC768073), cobimetinib (NSC768068), divarasib (GDC6063, NSC841802), docetaxel (NSC628503), GDC-1971 (RLY-1971, NSC841576), gemcitabine (NSC613327), inavolisib (NSC800729), ipatasertib (NSC767898), KB-0742 (NSC834161), MRTX-1133 (NSC836407), osimertinib (NSC779217), RMC-4630 (NSC839698), RMC-6236 (NSC851965), RMC-6291 (NSC852671), Ro-3306 (NSC812927), sapanisertib (NSC764658), SN-38 (NSC673596), staurosporine (NSC755774), SY5609 (NSC837396), and tovorafenib (DAY101, NSC766906), were obtained from the National Cancer Institute (NCI) Developmental Therapeutics Program Chemical Repository. The FDA-approved anticancer drug set is available from the NCI Developmental Therapeutics Program. […] The stock solutions were prepared in dimethyl sulfoxide (DMSO, Sigma-Aldrich, St. Louis, MO, cat. D2650) at 800-fold the tested concentration and stored at -70 degrees C prior to their use. All drugs and investigational agents were tested over a range starting from a high concentration at or near the clinical Cmax and decreasing in half-log increments. If the clinical Cmax for an agent had not been determined, the highest concentration tested was 10 microM.
Cell Culture. All cells were maintained in an incubator at 37 degrees C and 5% CO2 with 95% humidity. The PDC lines were cultured according to standard operating procedures established by the NCI PDMR. All PDCs were thawed and cultured in Matrigel-coated flasks prepared with a working solution of 1X Ham's F-12 nutrient mix, without supplementation (Invitrogen, Waltham, MA, cat. 11765054), 100 U/mL penicillin-streptomycin (Invitrogen, cat. 15140122), and 2.5% Matrigel (Corning Inc., Corning, NY, cat. 354248) for the first three passages. The 362531-283-R-J2-PDC and 782815-120-R-J1-PDC lines were cultured in 6C/Colon 1B media, which includes advanced DMEM/F-12 (Thermo Fisher Scientific, cat. 12634028), 10 mM HEPES (Thermo Fisher Scientific, cat. 15630080), 1X GlutaMAX supplement (Thermo Fisher Scientific, cat. 35050061), 0.1 mg/mL primocin (InvivoGen, San Diego, CA, cat. ant-pm-2), 10% defined fetal bovine serum, heat inactivated (HyClone Laboratories Inc., Logan, UT, cat. SH30070.03HI), 50% L-WRN conditioned media (ATCC, cat. CRL-3276), 1.25 mM N-Acetyl-L-cysteine (Sigma-Aldrich, cat. A9165), 10 mM nicotinamide (Sigma-Aldrich, cat. N0636), 1X B-27 supplement (Thermo Fisher Scientific, cat. 17504044), 1X N-2 supplement (Thermo Fisher Scientific, cat. 17502048), 50 ng/mL human EGF (Thermo Fisher Scientific, cat. PHG0311), and 10 microM Y-27632 dihydrochloride (Tocris Bioscience, cat. 1254). The K12877-001-R-J1-PDC line was cultured in 6I media, which includes all 6C/Colon 1B media plus 10 ng/mL human FGF-10 (PeproTech, cat. 100-26), 1 ng/mL human FGF-2 (PeproTech, cat. 100-18B), 1 µM prostaglandin E2 (Tocris Bioscience, cat. 2296), […] hydrocortisone (Sigma-Aldrich, cat. H4001), and […] bovine insulin (Sigma-Aldrich, cat. I6634). The K86415-001-R-J1-PDC line was cultured in 6D media, which includes all 6C/Colon 1B media components minus the L-WRN conditioned media. The 485176-168-R4-J1-PDC was cultured in PANC media, which includes all 6C/Colon 1B media plus 100 ng/mL human FGF-10 (PeproTech, cat. 100-26), 500 nM SB-431542 (Selleckchem, cat. S1067), and 10 nM gastrin (Tocris Bioscience, cat. 3006). […]
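Note: spheroids exposed to compounds for seven days before readout.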
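Throughout, for viability, T/C: 100% = DMSO vehicle control viability.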

SMILES: Cc1nc(N2CCC3(CC2)COC(C)C3N)c(CO)nc1Sc1ccnc(N)c1Cl (configuration not stated) + C=CC(=O)N1CCN(c2nc(OCC3CCCN3C)nc3c(F)c(-c4nc(N)cc(C)c4C(F)(F)F)c(Cl)cc23)C(C)C1
- IC50 (second compound 0.00316 µM): > 10 µM
- IC50 (second compound 0.01 µM): > 10 µM
- IC50 (second compound 0.0316 µM): > 10 µM
- IC50 (second compound 0.1 µM): > 10 µM
- IC50 (second compound 0.316 µM): > 10 µM
- IC50 (second compound 1 µM): > 10 µM
- viability, T/C (second compound 0.00316 µM, first compound 0.0316 µM): 115%
- viability, T/C (second compound 0.00316 µM, first compound 0.1 µM): 142%
- viability, T/C (second compound 0.00316 µM, first compound 0.316 µM): 71%
- viability, T/C (second compound 0.00316 µM, first compound 1 µM): 86.8%
- viability, T/C (second compound 0.00316 µM, first compound 3.16 µM): 117%
- viability, T/C (second compound 0.00316 µM, first compound 10 µM): 143%
- viability, T/C (second compound 0.01 µM, first compound 0.0316 µM): 154%
- viability, T/C (second compound 0.01 µM, first compound 0.1 µM): 134%
- viability, T/C (second compound 0.01 µM, first compound 0.316 µM): 77.8%
- viability, T/C (second compound 0.01 µM, first compound 1 µM): 87.9%
- viability, T/C (second compound 0.01 µM, first compound 3.16 µM): 121%
- viability, T/C (second compound 0.01 µM, first compound 10 µM): 148%
- viability, T/C (second compound 0.0316 µM, first compound 0.0316 µM): 149%
- viability, T/C (second compound 0.0316 µM, first compound 0.1 µM): 173%
- viability, T/C (second compound 0.0316 µM, first compound 0.316 µM): 77.3%
- viability, T/C (second compound 0.0316 µM, first compound 1 µM): 90.5%
- viability, T/C (second compound 0.0316 µM, first compound 3.16 µM): 126%
- viability, T/C (second compound 0.0316 µM, first compound 10 µM): 139%
- viability, T/C (second compound 0.1 µM, first compound 0.0316 µM): 162%
- viability, T/C (second compound 0.1 µM, first compound 0.1 µM): 147%
- viability, T/C (second compound 0.1 µM, first compound 0.316 µM): 80.6%
- viability, T/C (second compound 0.1 µM, first compound 1 µM): 74.2%
- viability, T/C (second compound 0.1 µM, first compound 3.16 µM): 138%
- viability, T/C (second compound 0.1 µM, first compound 10 µM): 126%
- viability, T/C (second compound 0.316 µM, first compound 0.0316 µM): 180%
- viability, T/C (second compound 0.316 µM, first compound 0.1 µM): 136%
- viability, T/C (second compound 0.316 µM, first compound 0.316 µM): 78.5%
- viability, T/C (second compound 0.316 µM, first compound 1 µM): 76.7%
- viability, T/C (second compound 0.316 µM, first compound 3.16 µM): 106%
- viability, T/C (second compound 0.316 µM, first compound 10 µM): 140%
- viability, T/C (second compound 1 µM, first compound 0.0316 µM): 167%
- viability, T/C (second compound 1 µM, first compound 0.1 µM): 135%
- viability, T/C (second compound 1 µM, first compound 0.316 µM): 78.3%
- viability, T/C (second compound 1 µM, first compound 1 µM): 83.4%
- viability, T/C (second compound 1 µM, first compound 3.16 µM): 111%
- viability, T/C (second compound 1 µM, first compound 10 µM): 133%
